The test concerns P388 leukemia ip, CD2F1 mice, survival T/C. Nature of the test: NCI In Vivo Anticancer Drug Screen. Data for tumor model P388 Leukemia (intraperitoneal) in CD2F1 (CDF1) mice. The settings on record: endpoint: median survival time, higher = longer survival. Put shortly: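 Mice carrying the transplanted tumor received test compound or vehicle. Survival was recorded in each group, and the value is the treated-group measurement divided by that of the vehicle-treated control group.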

[1] abbreviates: dose: 50.0 mg/kg/injection, schedule: Q01DX005 (ip), vehicle: saline with Tween-80.
Setting [2] is: dose: 100.0 mg/kg/injection, schedule: Q01DX005 (ip), vehicle: saline with Tween-80.
Setting [3] is: dose: 50.0 mg/kg/injection, schedule: Q04DX002 (ip), vehicle: saline with Tween-80.
Where [4] appears, read: dose: 200.0 mg/kg/injection, schedule: Q04DX002 (ip), vehicle: saline with Tween-80.
The mark [5] stands for this setting: dose: 200.0 mg/kg/injection, schedule: Q01DX005 (ip), vehicle: Klucel (hydroxypropylcellulose) (HPC).
[6] abbreviates: dose: 60.0 mg/kg/injection, schedule: Q01DX005 (ip), vehicle: saline with Tween-80.
Where [7] appears, read: dose: 120.0 mg/kg/injection, schedule: Q01DX005 (ip), vehicle: saline with Tween-80.
[8] abbreviates: dose: 240.0 mg/kg/injection, schedule: Q01DX005 (ip), vehicle: saline with Tween-80.
The mark [9] stands for this setting: dose: 50.0 mg/kg/injection, schedule: Q01DX005 (ip), vehicle: Klucel (hydroxypropylcellulose) (HPC).
[10] abbreviates: dose: 100.0 mg/kg/injection, schedule: Q01DX005 (ip), vehicle: Klucel (hydroxypropylcellulose) (HPC).

Structures are written as SMILES. Values joined by “and” are separate entries in the source; they are usually repeats but may differ in a detail not shown here. Equal entries are not always repeated. Inconclusive results and toxic doses are left out. Square brackets hold non-standard residues; d marks the D form. Peptide text beside a SMILES is read from it. ξ: configuration not given here. ξT = CC(O)C(N)C(=O)O

In the case of `CN(C)c1ccc(C2(c3ccc(N(C)C)cc3)NNC(=O)c3cc(N(C)C)ccc32)cc1`, the T/C (dose: 1.5 mg/kg/injection, schedule: Q01DX005 (ip), vehicle: saline) was 100 % of control; the T/C (dose: 3.0 mg/kg/injection, schedule: Q01DX005 (ip), vehicle: saline) was 93 % of control; the T/C (dose: 6.0 mg/kg/injection, schedule: Q01DX005 (ip), vehicle: saline) is 95 % of control; the T/C (dose: 6.25 mg/kg/injection, schedule: Q01DX005 (ip), vehicle: saline with Tween-80) is 92 % of control.

As for `CCOC(=O)C(=O)C(C#N)c1ccccc1CC#N` (centres undefined), the T/C under setting [1] is 109 % of control and the T/C under setting [2] is 97 % of control.

With `CC(O)C(N)C(=O)NCC(=O)NCC(=O)O` (stereo not drawn) (H-[ξT]-Gly-Gly-OH), the T/C (dose: 50.0 mg/kg/injection, schedule: Q01DX005 (ip), vehicle: saline) is 101 % of control; the T/C (dose: 100.0 mg/kg/injection, schedule: Q01DX005 (ip), vehicle: saline) was 101 % of control; the T/C (dose: 200.0 mg/kg/injection, schedule: Q01DX005 (ip), vehicle: saline) was 104 % of control.

On to `O=c1/c(=C/C=C/c2ccccc2)sc2nc3ccccc3n12`, for which the T/C by setting is: under setting [1], 107 % of control; under setting [2], 106 % of control; (dose: 200.0 mg/kg/injection, schedule: Q01DX005 (ip), vehicle: saline with Tween-80) 92 % of control.

For `CN(c1ccccc1)C1C2=C(OC(=O)C1(Cl)Cl)c1sc(-c3ccccc3)nc1CC2` (centres undefined), the T/C was 93 % of control (dose: 12.5 mg/kg/injection, schedule: Q04DX002 (ip), vehicle: saline with Tween-80); 97 % of control (dose: 25.0 mg/kg/injection, schedule: Q04DX002 (ip), vehicle: saline with Tween-80); 93 % of control under setting [3]; 86 % of control under setting [4].

Take `c1cc2c3c(ccc2c2c1OCN(C1CCCCC1)C2)OCN(C1CCCCC1)C3`: the T/C (dose: 3.12 mg/kg/injection, schedule: Q01DX005 (ip), vehicle: Klucel (hydroxypropylcellulose) (HPC)) was 96 % of control; the T/C (dose: 6.25 mg/kg/injection, schedule: Q01DX005 (ip), vehicle: Klucel (hydroxypropylcellulose) (HPC)) was 91 % of control; the T/C (dose: 12.5 mg/kg/injection, schedule: Q01DX005 (ip), vehicle: Klucel (hydroxypropylcellulose) (HPC)) is 90 % of control; the T/C under setting [5] is 94 % of control.

In the case of `COc1ccc(CC(=O)NCCc2ccc3cc(OC)c(OC)cc3c2)cc1OC`, the T/C (dose: 100.0 mg/kg/injection, schedule: Q04DX003 (ip), vehicle: saline with Tween-80) is 100 % of control; the T/C (dose: 200.0 mg/kg/injection, schedule: Q04DX003 (ip), vehicle: saline with Tween-80) is 100 % of control; the T/C (dose: 400.0 mg/kg/injection, schedule: Q04DX003 (ip), vehicle: saline with Tween-80) is 100 % of control.

`CSc1nc(NC2OCC(OC(C)=O)C(OC(C)=O)C2OC(C)=O)c(N=CC=Nc2c(NC3OCC(OC(C)=O)C(OC(C)=O)C3OC(C)=O)nc(SC)n(C)c2=O)c(=O)n1C` (centres undefined): the T/C is 95 % of control under setting [6], 91 % of control under setting [7] and 92 % of control under setting [8].

Consider `CCOC(=O)c1cnc2c(C(F)(F)F)cccc2c1Nc1ccc2c(c1)OCO2`, for which the T/C was 100 % of control (dose: 60.0 mg/kg/injection, schedule: Q01DX005 (ip), vehicle: Klucel + Tween-80); 103 % of control (dose: 120.0 mg/kg/injection, schedule: Q01DX005 (ip), vehicle: Klucel + Tween-80); 97 % of control (dose: 240.0 mg/kg/injection, schedule: Q01DX005 (ip), vehicle: Klucel + Tween-80).

Regarding `COc1cccc2c1C(=O)c1c(O)c3c(c(O)c1C2=O)CC(O)(C(C)=O)CC3OC1CC(OC(=O)c2ccc([N+](=O)[O-])cc2)C(OC(=O)c2ccc([N+](=O)[O-])cc2)C(COC(=O)c2ccc([N+](=O)[O-])cc2)O1` (centres undefined), the T/C is, setting by setting: (dose: 3.13 mg/kg/injection, schedule: Q04DX003 (ip), vehicle: distilled water + Tween-80) 100 % of control and 101 % of control; (dose: 6.25 mg/kg/injection, schedule: Q04DX003 (ip), vehicle: distilled water + Tween-80) 100 % of control and 99 % of control; (dose: 12.5 mg/kg/injection, schedule: Q04DX003 (ip), vehicle: distilled water + Tween-80) 104 % of control; (dose: 25.0 mg/kg/injection, schedule: Q04DX003 (ip), vehicle: distilled water + Tween-80) 102 % of control and 100 % of control; (dose: 50.0 mg/kg/injection, schedule: Q04DX003 (ip), vehicle: distilled water + Tween-80) 95 % of control.

On to `Cc1ccc(S(=O)(=O)N/N=C2/C=CC3(CC2)CC2C=CC3C2)cc1` (centres undefined), for which the T/C is 91 % of control (dose: 50.0 mg/kg/injection, schedule: Q01DX001 (ip), vehicle: Klucel (hydroxypropylcellulose) (HPC)); 89 % of control (dose: 100.0 mg/kg/injection, schedule: Q01DX001 (ip), vehicle: Klucel (hydroxypropylcellulose) (HPC)); 101 % of control (dose: 200.0 mg/kg/injection, schedule: Q01DX001 (ip), vehicle: Klucel (hydroxypropylcellulose) (HPC)).

Turning to `NC(=O)C1CC2(c3ccccn3)c3ccccc3C1c1ccccc12` (centres undefined), the T/C reads like this: under setting [9], 96 % of control; under setting [10], 90 % of control; under setting [5], 88 % of control.

In the case of `NC(=O)NNC(=O)NNC(N)=O`, the T/C was 98 % of control (dose: 100.0 mg/kg/injection, schedule: Q04DX003 (ip), vehicle: saline); 96 % of control (dose: 200.0 mg/kg/injection, schedule: Q04DX003 (ip), vehicle: saline); 106 % of control (dose: 400.0 mg/kg/injection, schedule: Q04DX003 (ip), vehicle: saline).

For the compound `Cn1c(=O)c2nc(-c3ccccc3)nnc2n(C)c1=O`, the T/C by setting is: (dose: 100.0 mg/kg/injection, schedule: Q04DX003 (ip), vehicle: Klucel (hydroxypropylcellulose) (HPC)) 102 % of control; (dose: 200.0 mg/kg/injection, schedule: Q04DX003 (ip), vehicle: Klucel (hydroxypropylcellulose) (HPC)) 103 % of control; (dose: 400.0 mg/kg/injection, schedule: Q04DX003 (ip), vehicle: Klucel (hydroxypropylcellulose) (HPC)) 115 % of control.

As to `O=C1OC(c2ccccc2)=N/C1=C\c1cccc([N+](=O)[O-])c1`, the T/C reads like this: under setting [3], 96 % of control; (dose: 100.0 mg/kg/injection, schedule: Q04DX002 (ip), vehicle: saline with Tween-80) 97 % of control; under setting [4], 99 % of control; (dose: 400.0 mg/kg/injection, schedule: Q04DX002 (ip), vehicle: saline with Tween-80) 99 % of control.

In the case of `O=c1[nH]c2ccccc2c(N=Cc2ccccc2)c1-c1ccccc1`, the T/C runs as follows: (dose: 60.0 mg/kg/injection, schedule: Q01DX005 (ip), vehicle: Klucel (hydroxypropylcellulose) (HPC)) 96 % of control; (dose: 120.0 mg/kg/injection, schedule: Q01DX005 (ip), vehicle: Klucel (hydroxypropylcellulose) (HPC)) 93 % of control; (dose: 240.0 mg/kg/injection, schedule: Q01DX005 (ip), vehicle: Klucel (hydroxypropylcellulose) (HPC)) 98 % of control.

Turning to `COc1cc2c(c(OC)c1OC)-c1ccc(SC)c(=O)cc1[C@@H](NC1OC(COC(C)=O)C(OC(C)=O)C(OC(C)=O)C1OC(C)=O)CC2` (some centres undefined), the T/C is 97 % of control (dose: 0.75 mg/kg/injection, schedule: Q01DX009 (ip), vehicle: other); 97 % of control (dose: 1.5 mg/kg/injection, schedule: Q01DX009 (ip), vehicle: other); 102 % of control (dose: 3.0 mg/kg/injection, schedule: Q01DX009 (ip), vehicle: other); 107 % of control (dose: 6.0 mg/kg/injection, schedule: Q01DX009 (ip), vehicle: other); 117 % of control (dose: 12.0 mg/kg/injection, schedule: Q01DX009 (ip), vehicle: other); 120 % of control (dose: 24.0 mg/kg/injection, schedule: Q01DX009 (ip), vehicle: other). For the same compound, the T/C (dose: 192.0 mg/kg/injection, schedule: Q01DX009 (ip), vehicle: other) was 150 % of control.

As for `CO/C=C/c1cc2c(cc1Br)OCO2`, the T/C was 105 % of control under setting [6], 111 % of control under setting [7] and 97 % of control under setting [8].

Regarding `CCC(=O)C(C)C(=O)CCC(=O)Nc1cc(Cl)ccc1Cl` (centres undefined), the T/C (dose: 60.0 mg/kg/injection, schedule: Q01DX005 (ip), vehicle: saline) was 101 % of control; the T/C (dose: 120.0 mg/kg/injection, schedule: Q01DX005 (ip), vehicle: saline) is 103 % of control; the T/C (dose: 240.0 mg/kg/injection, schedule: Q01DX005 (ip), vehicle: saline) is 103 % of control.

Turning to `O=C1NCC2CCCCC12` (centres undefined), the T/C by setting is: under setting [9], 107 % of control; under setting [10], 99 % of control; under setting [5], 100 % of control.

(Values after PubChem BioAssay AID330 (DTP/NCI, 2004).)
